From patent publication US8853258B2, “C-linked hydroxamic acid derivatives useful as antibacterial agents” (Pfizer Inc., priority 2009, dated 2014)
Values after ≈ are worked out from the molar mass of the structure shown. Where two headings read alike, the source gives them in different places.

Assays:
Format in all cases: cell-based
[1] = tested on: Pseudomonas aeruginosa UI-18: Wild-type (PA-7); test: MIC determination (CLSI), PA-7; details: for PA-7 MIC: Pseudomonas aeruginosa UI-18 wild-type PA-7; for MIC: Pseudomonas aeruginosa
Protocol: (§1) The in vitro antibacterial activity of compounds described in the Examples was evaluated by minimum inhibitory concentration (MIC) testing according to Clinical and Laboratory Standards Institute (CLSI, formerly NCCLS) guidelines. See: Clinical and Laboratory Standards Institute. Methods for Dilution Antimicrobial Susceptibility Tests for Bacteria that Grow Aerobically; Approved Standard-Seventh Edition. CLSI document M7-A7 [ISBN 1-56238-587-9]. Clinical and Laboratory Standards Institute, 940 West Valley Road, Suite 1400, Wayne, Pa. 19087-1898 USA, 2006; also Clinical and Laboratory Standards Institute. Performance Standards for Antimicrobial Susceptibility Testing; Eighteenth Informational Supplement. CLSI document M100-S18 [ISBN1-56238-653-0]. Clinical and Laboratory Standards Institute.
(§2) The following bacterial strains were used in these MIC determinations:
1) Pseudomonas aeruginosa UI-18: Wild-type, labeled as PA-7 in Tables 1, 2 and 3;

[2] = tested on: Acinetobacter baumanii/haemolyticus: Multidrug-resistant clinical isolate (AB-3167); test: MIC determination (CLSI), AB-3167; details: for AB-3167 MIC: Acinetobacter baumanii/haemolyticus multidrug-resistant clinical isolate AB-3167; for MIC: Acinetobacter baumannii
Protocol: as §1, §2
2) Acinetobacter baumanii/haemolyticus: Multidrug-resistant clinical isolate labeled as AB-3167 in Tables 1, 2 and 3;

[3] = tested on: Escherichia coli EC-1: VOGEL, mouse virulent; test: MIC determination (CLSI), EC-1; details: for EC-1 MIC: Escherichia coli EC-1 VOGEL, mouse virulent; for MIC: Escherichia coli
Protocol: as §1, §2
3) Escherichia coli EC-1: VOGEL, mouse virulent labeled as EC-1 in Tables 1, 2 and 3;

[4] = tested on: Klebsiella pneumoniae: Ciprofloxacin-resistant isolate, ESBL, clinical isolate (KP-3700); test: MIC determination (CLSI), KP-3700
Protocol: as §1, §2
4) Klebsiella pneumoniae: Ciprofloxacin-resistant isolate, expresses extended-spectrum beta-lactamases (ESBL), clinical isolate, labeled as KP-3700 in Tables 1, 2, and 3.

`Cc1cc(-c2ccc(CCC(C)(C(=O)NO)S(C)(=O)=O)cc2)ccc1CCO` (stereo not shown) [Example 152] was tested, and the “PA-7 MIC” value [1] was 2 µg/mL, the “AB-3167 MIC” value [2] was “≧64 mg/L” and the “EC-1 MIC” value [3] was 4 µg/mL. For the same compound, the “KP-3700 MIC” value [4] was 16 µg/mL.

With `CC(CCc1ccc(-c2ccco2)cc1)(C(=O)NO)S(C)(=O)=O` (stereo not shown) [Example 103] the “PA-7 MIC” value [1] was 4 µg/mL, the “AB-3167 MIC” value [2] was 32 µg/mL and the “EC-1 MIC” value [3] was 8 µg/mL. The “KP-3700 MIC” value [4] was 16 µg/mL.

In the case of `CC(CCc1ccc(OCCCc2ccccc2)cc1)(C(=O)NO)S(C)(=O)=O` (stereo not shown) [Example 264, N-hydroxy-2-methyl-2-(methylsulfonyl)-4-[4-(3-phenylpropoxy)phenyl]butanamide], the MIC ([1]; Table 3, read-out: PA-7 MIC) is reported as 32 µg/mL (≈ 78.9 µM), the MIC ([2]; Table 3, read-out: AB-3167 MIC) is reported as 8 µg/mL (≈ 19.7 µM) and the MIC ([3]; read-out: EC-1 MIC) is reported as 4 µg/mL (≈ 9.86 µM). For the same compound, the “KP-3700 MIC” value [4] was 16 µg/mL.

In the case of `Cn1ccnc1-c1ccc(-c2ccc(CCC(C)(C(=O)NO)S(C)(=O)=O)cc2)cc1` (stereo not shown) [Example 92], the “PA-7 MIC” value [1] is reported as 32 µg/mL, the “AB-3167 MIC” value [2] is reported as “≧64 mg/L” and the “EC-1 MIC” value [3] is reported as 16 µg/mL. The “KP-3700 MIC” value [4] was 32 µg/mL.

For `CC(CCc1ccc(OCC2CC2)cc1)(C(=O)NO)S(C)(=O)=O` (stereo not shown) [Example 246, 4-[4-(cyclopropylmethoxy)phenyl]-N-hydroxy-2-methyl-2-(methylsulfonyl)butanamide], the MIC ([1]; Table 3, read-out: PA-7 MIC) was at least 64 µg/mL, the MIC ([2]; Table 3, read-out: AB-3167 MIC) was at least 64 µg/mL and the MIC ([3]; read-out: EC-1 MIC) was 32 µg/mL (≈ 93.7 µM). The “KP-3700 MIC” value [4] was “≧64 mg/L”.

In the case of `CC(CCc1ccc(-c2ccc(C#N)cn2)cc1)(C(=O)NO)S(C)(=O)=O` (stereo not shown) [Example 129], the “PA-7 MIC” value [1] is reported as 4 µg/mL, the “AB-3167 MIC” value [2] is reported as “≧64 mg/L” and the “EC-1 MIC” value [3] is reported as 16 µg/mL. For the same compound, the “KP-3700 MIC” value [4] was “≧64 mg/L”.

For `COc1ccc(OC)c(-c2ccc(CCC(C)(C(=O)NO)S(C)(=O)=O)cc2)c1` (stereo not shown) [Example 48], the “PA-7 MIC” value [1] was “≧64 mg/L”, the “AB-3167 MIC” value [2] was 16 µg/mL and the “EC-1 MIC” value [3] was 16 µg/mL. For the same compound, the “KP-3700 MIC” value [4] was “≧64 mg/L”.

With `CC(CCc1ccc(-c2cc(C(F)(F)F)c(C#N)cn2)cc1)(C(=O)NO)S(C)(=O)=O` (stereo not shown) [Example 124] the “PA-7 MIC” value [1] was 8 µg/mL, the “AB-3167 MIC” value [2] was “≧64 mg/L” and the “EC-1 MIC” value [3] was 8 µg/mL. The “KP-3700 MIC” value [4] was “≧64 mg/L”.

With `COc1ccc(-c2ccc(CCC(C)(C(=O)NO)S(C)(=O)=O)cc2)c(C)n1` (racemic) [Example 86] the “PA-7 MIC” value [1] was 4 µg/mL, the “AB-3167 MIC” value [2] was “≧64 mg/L” and the “EC-1 MIC” value [3] was 8 µg/mL. The “KP-3700 MIC” value [4] was 32 µg/mL.

`CC(CCc1ccc(Oc2ccccc2)cc1)(C(=O)NO)S(C)(=O)=O` (stereo not shown) [Example 10, N-Hydroxy-2-methyl-2-(methylsulfonyl)-4-(4-phenoxyphenyl)butanamide] showed an MIC ([1]; Table 1, MIC, read-out: PA-7 (MIC)) of 8 µg/mL (≈ 22 µM), an MIC ([2]; Table 1, MIC, read-out: AB-3167 (MIC)) of 32 µg/mL (≈ 88 µM) and an MIC ([3]; read-out: EC-1: (MIC)) of 16 µg/mL (≈ 44 µM). The “KP-3700 MIC” value [4] was 32 µg/mL.

`CSc1ccccc1-c1ccc(CCC(C)(C(=O)NO)S(C)(=O)=O)cc1` (stereo not shown) [Example 94] was tested, and the “PA-7 MIC” value [1] was 32 µg/mL, the “AB-3167 MIC” value [2] was “≧64 mg/L” and the “EC-1 MIC” value [3] was 32 µg/mL. The “KP-3700 MIC” value [4] was “≧64 mg/L”.

In the case of `CC(CCc1ccc(OCCOc2ccccc2)cc1)(C(=O)NO)S(C)(=O)=O` (stereo not shown) [Example 248, N-hydroxy-2-methyl-2-(methylsulfonyl)-4-[4-(2-phenoxyethoxy)phenyl]butanamide], the MIC ([1]; Table 3, read-out: PA-7 MIC) is reported as 32 µg/mL (≈ 78.5 µM), the MIC ([2]; Table 3, read-out: AB-3167 MIC) is reported as 32 µg/mL (≈ 78.5 µM) and the MIC ([3]; read-out: EC-1 MIC) is reported as 2 µg/mL (≈ 4.91 µM). The “KP-3700 MIC” value [4] was 8 µg/mL.

For `Cc1cc(CCO)ccc1-c1ccc(CCC(C)(C(=O)NO)S(C)(=O)=O)cc1` (stereo not shown) [Example 156], the “PA-7 MIC” value [1] was 8 µg/mL, the “AB-3167 MIC” value [2] was 16 µg/mL and the “EC-1 MIC” value [3] was 16 µg/mL. For the same compound, the “KP-3700 MIC” value [4] was 8 µg/mL.

With `CC(CCc1ccc(-c2ccc(C#N)c(O)c2)cc1)(C(=O)NO)S(C)(=O)=O` (stereo not shown) [Example 142] the “PA-7 MIC” value [1] was 32 µg/mL, the “AB-3167 MIC” value [2] was “≧64 mg/L” and the “EC-1 MIC” value [3] was “≧64 mg/L”. For the same compound, the “KP-3700 MIC” value [4] was “≧64 mg/L”.

In the case of `CC(CCc1ccc(-c2cccc(O)c2F)cc1)(C(=O)NO)S(C)(=O)=O` (stereo not shown) [Example 154], the “PA-7 MIC” value [1] is reported as 1 µg/mL, the “AB-3167 MIC” value [2] is reported as “≧64 mg/L” and the “EC-1 MIC” value [3] is reported as 4 µg/mL. The “KP-3700 MIC” value ([4]; Klebsiella pneumoniae ciprofloxacin-resistant ESBL clinical isolate KP-3700) was 8 µg/mL.

In the case of `Cc1ccc(C)c(-c2ccc(CCC(C)(C(=O)NO)S(C)(=O)=O)cc2)c1` (racemic) [Example 73], the “PA-7 MIC” value [1] is reported as 32 µg/mL, the “AB-3167 MIC” value [2] is reported as 4 µg/mL and the “EC-1 MIC” value [3] is reported as 16 µg/mL. For the same compound, the “KP-3700 MIC” value [4] was “≧64 mg/L”.
